Results published in patent US20040229777A1, “Crystalline phases of a potent HCV inhibitor” (Boehringer Ingelheim International GmbH, priority 2003, published 2004).

Experiments:
[1] = Moisture adsorption/desorption isotherm (VTI SGA-100 moisture balance); assay type: physicochemical; conditions: 25° C.; adsorption 5 to 95% RH, desorption 95 to 5% RH; samples dried at 50° C. prior to analysis
Description: It is clear from FIG. 3 that the moisture content of Type A varies depending on the relative humidity of its environment, up to a maximum water sorption level of about 3.7% by weight. […] It is clear from FIG. 7 that the moisture content of Type B varies depending on the relative humidity of its environment, up to a maximum water sorption level of about 4.5% by weight. Moisture adsorption/desorption data were collected on a VTI SGA-100 moisture balance system, available from VTI Corporation of Hialeah, Fla. For adsorption isotherms, an adsorption range of 5 to 95% relative humidity and a desorption range of 95 to 5% relative humidity in 5% relative humidity increments were used for analysis. The samples were dried at 50° C. prior to analysis. The analyses were conducted at 25° C. Equilibrium criteria used for the analysis were less than 0.001 percent change in 5 minutes with a maximum equilibration time of 1200 minutes if the weight criterion was not met.

[2] = XRPD analysis of the crystal phase under varied relative humidity and elevated temperature; assay type: physicochemical
Description: This behavior is typical of channel hydrates, whereby water resides within the channels in the crystal lattice and can readily move in and out of the structure. Type A is therefore believed to be a type of channel hydrate. Type B is also a variable hydrate crystalline phase of Compound (1), i.e., the number of water molecules associated with each molecule of Compound (1) may vary. […] For this reason, it is preferable to maintain Type B at a modest RH level of about 20% to 40%. X-ray powder diffraction analyses were conducted on a Bruker AXS X-Ray Powder Diffractometer Model D8 Advance, available from Bruker AXS, Inc. of Madison, Wis., using CuKα radiation. The instrument is equipped with a long fine focus x-ray tube. The tube power was set to 40 kV and 30 mA. The instrument was operated in parallel beam mode with a Gobel Mirror, using a 0.6 mm exit slit, a 0.40 soller slit, a LiF flat crystal diffracted beam monochromator and a NaI scintillation detector. A detector scan was run using a tube angle of 1° 2θ. Step scans were run from 2 to 35° 2θ, at 0.050 per step, 4 sec per step. A reference quartz standard was used to check instrument alignment. Samples were prepared for analysis by filing a zero background quartz holder.

For `COc1ccc2c(O[C@@H]3C[C@H]4C(=O)N[C@]5(C(=O)O)C[C@H]5/C=C\CCCCC[C@H](NC(=O)OC5CCCC5)C(=O)N4C3)cc(-c3csc(NC(C)C)n3)nc2c1` [Type B], the “maximum water sorption level” value [1] was “about 4.5 % by weight” and the “crystal structure behaviour under varied humidity and temperature” value ([2]; low relative humidity (e.g., dry nitrogen) and/or elevated temperature (˜90° C.)) was “readily loses water resulting in a partial collapse of its crystal structure”.

In the case of `COc1ccc2c(O[C@@H]3C[C@H]4C(=O)N[C@]5(C(=O)O)C[C@H]5/C=C\CCCCC[C@H](NC(=O)OC5CCCC5)C(=O)N4C3)cc(-c3csc(NC(C)C)n3)nc2c1` [Type A], the “maximum water sorption level” value [1] is reported as “about 3.7 % by weight” and the “crystal structure behaviour under varied humidity and temperature” value ([2]; dry nitrogen up to ˜85% RH and elevated temperature (up to 160° C.)) is reported as “crystal lattice expands at higher RH levels while maintaining its overall structure”.
